Counter-ions that a name gives are not always drawn. Like-named read-outs stand apart in the source and are kept apart here.
Experiments:
β-adrenoreceptor = test: β-adrenergic blocking activity in anesthetized dogs: antagonism (Inhibition %) of isoprenaline-induced responses; assay type: in vivo, dog; details: 300 μg/kg i.v., 10 minutes after; for Inhibition (%) dBP (antagonism to the depression of diastolic blood pressure induced by isoprenaline) / Inhibition (%) HR (antagonism to the increase in heart rate induced by isoprenaline): isoprenaline 1 μg/kg i.v.; for Inhibition (%) AR (antagonism to the depression by isoprenaline in increase of air-way resistance induced by histamine): isoprenaline 1 μg/kg, histamine 5 μg/kg i.v.
Protocol: The β-adrenergic blocking activity of the compounds of this invention was determined as follows:
Male hybrid adult dogs, weighing 10 to 16 kg, were anesthesized with sodium pentobarbital administered intravenously at a level of 30 mg/kg of body weight, and a cannula was inserted into the trachea of each of the anesthesized dogs. In order to avoid blood coagulation, heparin was administered intravenously at a level of 1000 units and thereafter a cannula was inserted into the right femoral artery. The experiments were conducted under artificial respiration at a rate of 20 ml/kg, 18 r.p.m.
The above parameters were continuously recorded on a polygraph (8S 28 Type, tradename of Sanei Sokki Co., Japan). During the experiment, gallamine was administered intravenously at a dosage of 3 mg/kg at one-hour intervals to avoid fluctuation of air-way resistance.
The β-adrenergic blocking activity of each of the test compounds was evaluated in terms of antagonism (Inhibition %) to the depression at the diastolic blood pressure (dBP) and to the increase in the heart rate induced by the intravenous administration of isoprenaline (1 μg/kg) and in terms of antagonism (Inhibition %) to the depression by isoprenaline in increase of air-way resistance which was induced by intravenous administration of histamine (5 μg/kg). In this case, histamine was administered 45 seconds after the administration of isoprenaline.

[1] = acute toxicity (LD50) by intravenous and oral administration; details: rat, in vivo, fasted 12 hours
Protocol: Further, the acute toxicity of the compounds of the present invention having the formula (I) was determined by intravenous administration (i.v.) and oral administration (p.o.) in 5 to 6 groups of […] (dd strain; body weight, 18 to 22 g; 10 rats in each group) which have been fasted for 12 hours prior to the test.

[2] = iv, male rats, i.v., read-out: LD50 i.v.
[3] = po, male rats, p.o., read-out: LD50 p.o.

Row | SMILES | Inhibition (%) dBP (antagonism to the depression of diastolic blood pressure induced by isoprenaline) (β-adrenoreceptor) [%] | Inhibition (%) HR (antagonism to the increase in heart rate induced by isoprenaline) (β-adrenoreceptor) [%] | Inhibition (%) AR (antagonism to the depression by isoprenaline in increase of air-way resistance induced by histamine) (β-adrenoreceptor) [%] | LD50 ([1]; iv, female rats, i.v., read-out: LD50 i.v.) [mg/kg] | LD50 [1, 2] [mg/kg] | LD50 ([1]; po, female rats, p.o., read-out: LD50 p.o.) [mg/kg] | LD50 [1, 3] [mg/kg]
1 | CC(=O)Nc1ccc2c(c1OCC(O)CNC(C)C)CCC(=O)N2 (centres unmarked) [compound 1] | 17.8 | 25.3 | 11.3 |  |  |  | 
2 | COc1ccc(CCNCC(O)COc2ccc(NC(C)=O)c3c2CCC(=O)N3)cc1OC (centres unmarked) [compound 2] | 25.5 | 30.2 | 10.8 | 142 | 158 | 1230 | 1350
3 | COc1ccc(OCCNCC(O)COc2ccc(NC(N)=O)c3c2CCC(=O)N3)cc1 (centres unmarked) [compound 3] | 31.8 | 39.6 | 14.7 |  | 156 |  | 1340
4 | CCOC(=O)Nc1ccc(OCC(O)CNCCOc2ccc(C(N)=O)cc2)c2c1NC(=O)CC2 (centres unmarked) [compound 4] | 3.4 | 47.3 | 2.5 |  | 145 |  | 1210
5 | CC(NCC(O)COc1ccc(NC(=O)C2CCCCC2)c2c1CCC(=O)N2)c1ccccc1 (centres unmarked) [compound 5] | 42.4 | 53.3 | 23.2 |  |  |  | 
6 | COc1ccc(CCNCC(O)COc2c(NC(C)=O)ccc3c2CCC(=O)N3)cc1OC (centres unmarked) [compound 6] | 11.3 | 37.2 | 12.6 |  | 160 |  | 1380
7 | Cc1ccc(S(=O)(=O)Nc2ccc(OCC(O)CNCCOc3ccc(C(N)=O)cc3)c3c2NC(=O)CC3)cc1 (centres unmarked) [compound 7] | 11.4 | 26.8 | 10.2 |  | 115 |  | 1120
8 | Cc1ccccc1N1CCN(CC(O)COc2ccc(NS(C)(=O)=O)c3c2CCC(=O)N3)CC1 (centres unmarked) [compound 8] | 6.4 | 21.0 | 7.1 |  |  |  | 
9 | NC(=O)Nc1ccc(OCC(O)CN2CCN(c3ccccc3Cl)CC2)c2c1NC(=O)CC2 (centres unmarked) [compound 9] | 15.3 | 23.6 | 8.9 |  |  |  | 
10 | COc1ccccc1N1CCN(CC(O)COc2ccc(NC(C)=O)c3c2CCC(=O)N3)CC1 (centres unmarked) [compound 10] | 11.6 | 21.7 | 6.2 |  | 125 |  | 1170
11 | CC(C)(C)NCC(O)COc1cccc2c1CCC(=O)N2 (centres unmarked) [compound 11, 5-(3-t-butylamino-2-hydroxy)propoxy-3,4-dihydrocarbostyril hydrochloride, reference compound] | 100 | 100 | 100 |  |  |  | 
12 | COc1ccc(CCNCC(O)COc2cccc3c2CCC(=O)N3)cc1OC (centres unmarked) [compound 13, 5-(3,4-dimethoxyphenethylamino-2-hydroxy)propoxy-3,4-dihydrocarbostyril hydrochloride, reference compound] | 65.6 | 87.2 | 79.1 |  |  |  | 
